We go through 27 molecules from US10975063B2, “Compound, and production method thereof, and methods of treatment using the compound” (ABIVAX, priority 2009, dated 2021).

The test system of one assay is HIV-1. In words: Inhibition of HIV-1 production (p24 antigen) in infected peripheral blood mononuclear cells (PBMCs). It is filed as cell-based, HIV-1 (AdaM) in PBMCs of healthy donors. To be noted: for Inhibition of p24 production in HIV infected PBMCs from different donors: tested molecules at 10 μM, p24 after 3 and 6 days of infection, number of donors with inhibition out of donors tested; for IC50: Human immunodeficiency virus 1, PBMC, p24 production in HIV infected PBMCs, dose response curves. As to the method:
Within this framework, the peripheral blood mononuclear cells (PBMCs) of healthy donors are isolated by centrifugation on a FICOLL gradient. The cells are then cultivated to a density of 2.5×10^6 cells/ml with RPMI medium supplemented with 1% inactivated human AB serum, then incubated at 37° C., 5% CO2 for an additional hour. The peripheral blood mononuclear cells are then recovered and cultivated for two days in RPMI medium supplemented with 10% fetal calf serum.
A standard experiment using 96 plates to test 30 molecules in triplicates including positive and negative controls, is performed as follows:
50 10^6 Ficoll purified PBMCs (10% DMSO 90% FCS) are washed with RPMI 10% FCS and resuspended in 25 ml of RPMI 10% FCS, glutamax containing 1000 U/ml of IL2 and 5 μg/ml PHA. The cells are then incubated for 3 days at 37° C. before to be washed with 50 ml PBS then with 50 ml RPMI 10% FCS. The cells are resuspended in 100 μl of RPMI 10% FCS containing 100 U/ml IL2 and seeded in 96 wells (1.5 10^5 cells/well). Viral infection is performed with 1 ng of AdaM/well. 100 μl of tested molecules at concentration of 10 μM are added to each well. Virus production is determined by p24 antigen immunosorbent assays after 3 and 6 days of infection (Kit Innogenetics). Typically PBMCs are prepared from several healthy donors (around 11 different donors). Dose response curves were then established with selected compounds to determine IC50.

For assay [1], the system named is LMNA aberrant splicing (MutLMNA-luc cell line). In words: Luciferase assay for repression of LMNA aberrant splicing in stable 293 MutLMNA-luc cell line (293FLP LMNA LUC cells #8). It counts as cell-based. To be noted: 48 hours, compared to control untreated MutLMNA-luc cell line, read-out: Increase of luciferase activity. The source says:
Advantage has been taken of the luciferase system. The luciferase assay is an extremely sensitive and rapid assay. Linear results are seen over at least eight orders of magnitude of enzyme concentration. Moreover, the luciferase assay is well suited for high-throughput applications. To conduct a Mid-throughput screening (MTS) for compounds repressing LMNA aberrant splicing, we have constructed a plasmid in which exon 11, intron 11 and part of exon 12 of LMNA gene were fused with luciferase cDNA (FIG. 2). Both wild type (WtLMNA-luc)(SEQ ID NO: 1) and mutant (MutLMNA-luc)(SEQ ID NO: 2) substrate harbouring exon 11 mutation have been constructed. In these constructs we have generated a single initiation codon in exon 11 such as correct splicing will lead to luciferase expression, while aberrant splicing will skip the initiation codon and thereby prevent luciferase expression. After transfection in HeLa cells, Luciferase assays (FIG. 2B) and RT-PCR (FIG. 2C) indicate that WtLMNA-luc produces predominantly wild type splicing and large amount of luciferase activity, whereas MutLMNA-luc recapitulate the aberrant splicing profile with reduced luciferase expression (FIGS. 2 B and C, compare Wt and Mut). In order to use this system in MTS, we have generated a stable 293 cell lines containing a single integrated copy of luciferase reporter containing LMNA mutation (MutLMNA-luc cell line) using the flp system from INVITROGEN. This system allows us to perform a MTS for compounds able to enhance luciferase activity.
LMNA sequences (1278 bp of exon 11, intron 11 and 46 bp of […]) were PCR-amplified from either control or patient's cells genomic DNA with specific primer PCR fragments were purified with Concert Rapid PCR purification system (Invitrogen) and subcloned at the BamHI and EcoRI restriction sites of the pSppβm3 S1 plasmid containing the βGlobin cassette (Labourier et al., 1999—Recognition of exonic splicing enhancer sequences by the Drosophila splicing repressor RSF1. Nucleic Acids Res. 27, 2377-2386) to give the βGlo3S1LMNAwt and βGlo3S1LMNAmut constructs. The chimeric (3Glo-LMNA sequences were then inserted into the pcDNA3.1D/V5-His-TOPO vector (Invitrogen) to be used in transfection and in vitro splicing experiments. A single initiation codon ATG was kept in exon 11 of LMNA and LMNA sequences described above were fused at their 3′ end to Fyrefly luciferase cDNA (LMNAlucWT) in order that removal of intron 11 generates a transcript that encode a fusion protein harbouring luciferase activity, whereas usage of the cryptic splice site of mutated exon 11 (LMNAlucMut) will remove the initiation codon preventing luciferase expression. Both sequences were cloned in pcDNA3 Flp-In vector (Invitrogen).
A stable 293 cell line containing a single copy of LMNAlucMut minigene was obtained using the Flp-In system from (Invitrogen) according to manufacture procedure. Several clones were obtained and only one clone was used to screen the whole chemical library (293FLP LMNA LUC cells #8).
In a 96 Well Plate sterile, V-shape one put […] of drug compounds at 50 mM and then add 49.5 μl of 10% DMSO.
One pipets […] of drug at 500 μM and adds 200 μL of DMEM+Hygromycin B. At this stage the concentration of drug compound is 10 μM. One shares out 100 μl in a 96 Well Microplate sterile, flat bottom (further called luciferase plate) and 50 μl in other one (further called toxicity plate).
One washes 293FLP LMNA LUC cells once with D-PBS then adds 1 ml trypsin EDTA. Incubation at 37° C. for 2-3 minutes is proceeded. Then one adds 9 ml DMEM (with 10% FCS, P/S).
Cell concentration is brought at 10^5 cells per ml with DMEM+Hygromycin B to have 10^4 cells per 100 μl.
100 μl of suspension cells is added (at 10^4 cells per 100 μl) so final concentration of compounds is […].
Medium of the wells is gently removed then washed once by adding slowly 150 μl of D-PBS 1×. D-PBS is removed. 40 μl of PLB 1× is added and incubated at RT for 30 minutes. […]

In general, IC50 refers to the concentration at which inhibition is half-maximal. Low values mean higher potency, high ones lower potency.

`Cc1ccnc(Nc2nc3ccccc3nc2C(F)(F)F)c1` [Compound 139, N-(4-methylpyridin-2-yl)-3-(trifluoromethyl)quinoxalin-2-amine]: the “Inhibition of p24 production in HIV infected PBMCs from different donors” value (“Inhibition … from different donors” for short) with HIV-1 is on record as 4 out of 4 donnors. As to `Cc1cc2ccccc2nc1Nc1ccc(F)cn1` [Compound 73, N-(5-fluoropyridin-2-yl)-3-methylquinolin-2-amine], the “Inhibition … from different donors” value in the assay with HIV-1 is recorded as 4 out of 4 donnors. In the case of `COc1ccc(Nc2ccc3cccc(Cl)c3n2)cc1` [Compound 77, 8-chloro-N-(4-methoxyphenyl)quinolin-2-amine], in the assay with HIV-1, the IC50 is 50 pM and the “Inhibition … from different donors” value is 11 out of 13 donnors. Take `CCc1cccc(Nc2nc3ccccc3cc2C)n1` [Compound 72, N-(6-ethylpyridin-2-yl)-3-methylquinolin-2-amine]: the “Inhibition … from different donors” value in the assay on HIV-1 is 4 out of 4 donnors. Turning to `Cc1cc(Nc2ccc(OC(F)(F)F)cc2)nc2ccccc12` [Compound 78, 4-methyl-N-[4-(trifluoromethoxy)phenyl]quinolin-2-amine], the “Inhibition … from different donors” value in the assay on HIV-1 is 7 out of 8 donnors.

With `CN(C)c1ccc(Nc2ccc3cccc(Cl)c3n2)cc1` [Compound 75, 4-N-(8-chloroquinolin-2-yl)-1-N,1-N-dimethylbenzene-1,4-diamine], the “Inhibition … from different donors” value in the assay with HIV-1 is reported as 6 out of 7 donnors.

`Fc1ccc(Nc2ccc3cc(Cl)ccc3n2)nc1` [Compound 71, 6-chloro-N-(5-fluoropyridin-2-yl)quinolin-2-amine]: the “Inhibition … from different donors” value in the assay with HIV-1 was 4 out of 4 donnors. For `FC(F)(F)c1ccnc(Nc2ccc3cccc(Cl)c3n2)c1` [Compound 68, 8-chloro-N-[4-(trifluoromethyl)pyridin-2-yl]quinolin-2-amine], the “Inhibition … from different donors” value with HIV-1 is on record as 4 out of 4 donnors. Still for that read-out and setting: the same measure for `Cc1ccnc(Nc2cnc3ccccc3n2)c1[N+](=O)[O-]` [Compound 141, N-(4-methyl-3-nitropyridin-2-yl)quinoxalin-2-amine]: 4 out of 4 donnors. Turning to `Clc1cccc2ccc(Nc3cnccn3)nc12` [Compound 112, 8-chloro-N-(pyrazin-2-yl)quinolin-2-amine], in the assay on HIV-1, the IC50 came out at 100 pM and the “Inhibition … from different donors” value is 12 out of 13 donnors. On to `Cc1cc2ccccc2nc1Nc1ccc(OC(F)(F)F)cc1` [Compound 80, 3-methyl-N-[4-(trifluoromethoxy)phenyl]quinolin-2-amine], for which, in the assay with HIV-1, the IC50 came to 1000 pM and the “Inhibition … from different donors” value was 7 out of 8 donnors.

Take `FC(F)(F)Oc1ccc(Nc2ccc3cc(Cl)ccc3n2)cc1` [Compound 96, 6-chloro-N-(4-(trifluoromethoxy)phenyl)quinolin-2-amine]: the “Inhibition … from different donors” value with HIV-1 is listed as 5 out of 6 donnors.

Consider `Fc1cccc(Nc2ccc3cccc(Cl)c3n2)c1` [Compound 88, 8-chloro-N-(3-fluorophenyl)quinolin-2-amine], for which the “Inhibition … from different donors” value in the assay with HIV-1 is given as 4 out of 4 donnors. On to `CCc1cccc(Nc2ccc3cccc(Cl)c3n2)n1` [Compound 50, 8-chloro-N-(6-ethylpyridin-2-yl)quinolin-2-amine], for which, in the assay on HIV-1, the “Inhibition … from different donors” value was 4 out of 4 donnors.

`Cc1cc2ccccc2nc1Nc1ccc(C(F)(F)F)cn1` [Compound 74, 3-methyl-N-[5-(trifluoromethyl)pyridin-2-yl]quinolin-2-amine]: the “Inhibition … from different donors” value in the assay on HIV-1 is listed as 4 out of 4 donnors.

For `Cc1cc2ccccc2nc1Nc1ccc(N(C)C)cc1` [Compound 81, 1-N,1-N-dimethyl-4-N-(3-methylquinolin-2-yl)benzene-1,4-diamine], the “Inhibition … from different donors” value in the assay on HIV-1 is on record as 4 out of 4 donnors. `Fc1ccc(Nc2ccc3cccc(Cl)c3n2)nc1` [Compound 43, 8-chloro-N-(5-fluoropyridin-2-yl)quinolin-2-amine]: in the assay with HIV-1, the IC50 is 100 pM and the “Inhibition … from different donors” value is 8 out of 10 donnors. For `FC(F)(F)c1cccc(Nc2ccc3cccc(Cl)c3n2)n1` [Compound 70, 8-chloro-N-[6-(trifluoromethyl)pyridin-2-yl]quinolin-2-amine], in the assay on HIV-1, the “Inhibition … from different donors” value is 4 out of 4 donnors. With `COc1ccc(Nc2nc3ccccc3cc2C)cc1` [Compound 79, N-(4-methoxyphenyl)-3-methylquinolin-2-amine], the “Inhibition … from different donors” value in the assay with HIV-1 is listed as 7 out of 8 donnors. Consider `Cc1ccnc(Nc2ccc3c([N+](=O)[O-])cccc3n2)c1` [Compound 64, N-(4-methylpyridin-2-yl)-5-nitroquinolin-2-amine], for which the “Inhibition … from different donors” value in the assay with HIV-1 is reported as 5 out of 5 donnors. For `Oc1cccnc1Nc1ccc2cccc(Cl)c2n1` [Compound 69, 2-[(8-chloroquinolin-2-yl)amino]pyridin-3-ol], the “Inhibition … from different donors” value in the assay on HIV-1 is 4 out of 4 donnors. With `Cc1ccnc(Nc2ccc3cccc(Cl)c3n2)c1` [Compound 6, (8-Chloro-quinolin-2-yl)-(4-methyl-pyridin-2-yl)-amine], the IC50 in the assay on HIV-1 turned out to be 100 pM. In the case of `FC(F)(F)Oc1ccc(Nc2ccc3cccc(Cl)c3n2)cc1` [Compound 90, 8-chloro-N-[4-(trifluoromethoxy)phenyl]quinolin-2-amine], in the assay on HIV-1, the IC50 amounted to 100 pM and the “Inhibition … from different donors” value is 8 out of 10 donnors. For `FC(F)(F)Oc1ccc(Nc2ccc3cccc(Cl)c3n2)cc1Cl` [Compound 104, 8-chloro-N-[3-chloro-4-(trifluoromethoxy)phenyl]quinolin-2-amine], in the assay on HIV-1, the “Inhibition … from different donors” value is given as 4 out of 4 donnors. For `Cc1cccnc1Nc1ccc2ccccc2n1` [Compound 31, N-(3-methylpyridin-2-yl)quinolin-2-amine], in assay [1], the fold induction at 5 µM stood at 5.07. Consider `O=[N+]([O-])c1cccnc1Nc1ccc2ccccc2n1` [Compound 28, N-(3-nitropyridin-2-yl)quinolin-2-amine], for which the fold induction at 5 µM in assay [1] was 2.99.

On to `c1cnc(Nc2ccc3ccccc3n2)nc1` [Compound 128, N-(pyrimidin-2-yl)quinolin-2-amine], for which, in assay [1], the fold induction at 5 µM worked out at 3.08.
